Laboratory results: publication PMC13524802, “Unique adaptations in sulfatases underpin colonic mucin degradation by Akkermansia muciniphila” (Nature Microbiology, 2026)

Legend:
Amuc0491^3S-Gal/GalNAc = target: T1, Amuc0491^3S-Gal/GalNAc (Akkermansia muciniphila, UniProt B2UNV9); experiment: HPAEC and microfluidic desulfation assays; type: biochemical; settings: 5 mM CaCl2, 150 mM NaCl; kinetics (kcat/Km only) with labelled compound
T1 construct: gene Amuc_0491; recombinant, N-terminal His6 (pETite), E. coli TUNER (DE3)

Amuc1755^4S-Gal [1] = target: T2, Amuc1755^4S-Gal (Akkermansia muciniphila, UniProt B2UML7, E464A); experiment: HPAEC and TLC desulfation assay; type: biochemical; settings: overnight, 37 °C
T2 construct: gene Amuc_1755; recombinant, N-terminal His6 (pETite), E. coli TUNER (DE3); monomer

Amuc1755^4S-Gal [2] = target: T3, Amuc1755^4S-Gal (Akkermansia muciniphila, UniProt B2UML7, E464G); experiment: HPAEC and TLC desulfation assay; type: biochemical; settings: overnight, 37 °C
T3 construct: gene Amuc_1755; recombinant, N-terminal His6 (pETite), E. coli TUNER (DE3); monomer

[3] = target: Amuc1033^6S-GlcNAc (Akkermansia muciniphila) (UniProt B2UQX4); experiment: SEC-MALS; size-exclusion chromatography coupled to light scattering (90°) and refractive index; Agilent BioSEC Advance 300 Å column; 20 mM Tris-HCl pH 7.4, 150 mM NaCl; calibrated with BSA

T1 sequence (B2UNV9 entry or part of it): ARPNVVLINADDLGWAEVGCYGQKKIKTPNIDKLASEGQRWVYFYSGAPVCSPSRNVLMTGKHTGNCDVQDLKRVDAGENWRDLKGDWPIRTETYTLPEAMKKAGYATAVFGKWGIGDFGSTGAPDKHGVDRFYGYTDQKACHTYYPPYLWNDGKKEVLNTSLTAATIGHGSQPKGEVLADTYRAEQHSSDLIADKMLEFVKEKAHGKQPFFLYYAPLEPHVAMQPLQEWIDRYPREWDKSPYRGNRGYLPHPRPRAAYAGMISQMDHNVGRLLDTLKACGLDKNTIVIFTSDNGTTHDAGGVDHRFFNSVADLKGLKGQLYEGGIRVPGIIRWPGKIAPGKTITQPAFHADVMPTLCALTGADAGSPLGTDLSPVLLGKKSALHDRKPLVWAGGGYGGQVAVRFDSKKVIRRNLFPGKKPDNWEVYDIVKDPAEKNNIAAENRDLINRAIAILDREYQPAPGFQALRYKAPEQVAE
T3 sequence (B2UML7 entry or part of it E464G): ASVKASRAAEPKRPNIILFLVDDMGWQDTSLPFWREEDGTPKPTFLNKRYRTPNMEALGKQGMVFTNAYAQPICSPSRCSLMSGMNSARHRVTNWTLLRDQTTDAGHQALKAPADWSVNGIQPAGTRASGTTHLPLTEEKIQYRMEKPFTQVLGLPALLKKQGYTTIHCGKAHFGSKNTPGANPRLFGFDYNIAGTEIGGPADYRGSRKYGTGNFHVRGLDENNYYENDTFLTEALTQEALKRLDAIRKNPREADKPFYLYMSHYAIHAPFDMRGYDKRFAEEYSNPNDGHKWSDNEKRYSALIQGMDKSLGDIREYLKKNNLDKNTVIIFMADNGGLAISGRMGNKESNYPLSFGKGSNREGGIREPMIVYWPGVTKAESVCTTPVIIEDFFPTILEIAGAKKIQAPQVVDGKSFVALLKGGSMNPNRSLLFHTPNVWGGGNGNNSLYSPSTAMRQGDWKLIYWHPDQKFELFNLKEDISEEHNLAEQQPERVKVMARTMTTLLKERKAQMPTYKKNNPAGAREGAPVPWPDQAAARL
T2 sequence (B2UML7 entry or part of it E464A): as the sequence (B2UML7 entry or part of it E464G) above, with G441A counted along it

Row | Compound | HPAEC and microfluidic desulfation assays (Amuc0491^3S-Gal/GalNAc) | HPAEC and TLC desulfation assay (Amuc1755^4S-Gal [1]) | HPAEC and TLC desulfation assay (Amuc1755^4S-Gal [2]) | stoichiometry N [3]
1 | O=S(=O)(O)O[C@H]1[C@@H](O)[C@@H](CO)OC(O)[C@@H]1O (stereo partly drawn) [3S-Gal, O3 sulfated D-galactose] | which desulfate O3 sulfated D-galactose (3S-Gal)-containing substrates | – | – | –
2 | CC(=O)N[C@H]1C(O)O[C@H](CO)[C@H](O)[C@@H]1OS(=O)(=O)O (stereo partly drawn) [3S-GalNAc, O3 sulfated N-acetyl-D-galactosamine] | only Amuc0491^3S-Gal/GalNAc was capable of desulfating O3 sulfatedN-acetyl-D-galactosamine (3S-GalNAc) | – | – | –
3 | O=S(=O)(O)O[C@@H]1[C@H](O)[C@@H](O)C(O)O[C@@H]1CO (stereo partly drawn) [4S-Gal, O4 sulfated D-galactose] | – | but reduced activity on 4S-Gal | but reduced activity on 4S-Gal | –
4 | CC(=O)N[C@H]1C(O)O[C@H](CO)[C@H](OS(=O)(=O)O)[C@@H]1O (stereo partly drawn) [4S-GalNAc, O4 sulfated N-acetyl-D-galactosamine] | – | Mutation of Glu464 to Ala and Gly enabled the Amuc1755^4S-Gal to work on 4S-GalNAc | Mutation of Glu464 to Ala and Gly enabled the Amuc1755^4S-Gal to work on 4S-GalNAc | –
5 | Amuc1033^6S-GlcNAc (from UniProt B2UQX4 1-581) (enzyme) | – | – | – | 2
